According to patent US9278940B2, “Cyclic amines as bromodomain inhibitors” (Zenith Epigenetics Corp., priority 2012, dated 2016):
Structures can show the parent of a compound that is named as a salt.

Columns and labels:
[1] = molecular target: T1, Brd4 bromodomain 1 (Homo sapiens, UniProt O60885); experiment: Inhibition of tetra-acetylated histone H4 binding to BET bromodomain (TR-FRET); parameters: key: Active: Compounds with an IC50 value less than 30 μM were deemed to be active.; Not Active: Compounds with an IC50 value less than 30 μM were deemed to be active; conditions: Brd4 bromodomain 1, tetra-acetylated histone H4 peptide
T1 construct: made in house; host or cells: E. coli BL21(DE3)
How it was run: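 N-terminally His-tagged bromodomain (200 nM, E. coli-expressed, Ni affinity and SEC purified) with biotinylated tetra-acetylated H4 peptide (25-50 nM), Eu-cryptate streptavidin and XL665 anti-His; 2 h at room temperature in HEPES pH 7.4/KF buffer, 0.2% DMSO. The 665/620 nm ratio decrease gave IC50 from dose-response curves.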

[2] = test system: hMCP-1 mRNA; experiment: Inhibition of hMCP-1 mRNA transcription in human PBMCs; assay type: cell-based; parameters: key: Active: Compounds with an IC50 value less than 30 μM are deemed to be active.; Not Active: Compounds with an IC50 value less than 30 μM are deemed to be active; conditions: Human Peripheral Blood Mononuclear Cells, 3 h
Protocol: In this example, hMCP-1 mRNA in human peripheral blood mononuclear cells was quantitated to measure the transcriptional inhibition of hMCP-1 when treated with a compound of the present disclosure.
Human Peripheral Blood Mononuclear Cells were plated (1.0×10^5 cells per well) in a 96-well plate in 45 μL RPMI-1640 containing 10% FBS and penicillin/streptomycin. The cells were treated with the test compound (45 μL at 2× concentration), and then the cells were incubated at 37° C. for 3 h before the cells were harvested. At time of harvest, cells were transferred to V-bottom plates and centrifuged at 800 rpm for 5 minutes. Spent media was removed and cell lysis solution (70 μL) was added the cells in each well and incubated for 5-10 min at room temperature, to allow for complete cell lysis and detachment. mRNA was then prepared using the “mRNA Catcher PLUS plate” (Invitrogen), according to the protocol supplied. After the last wash, as much wash buffer as possible was aspirated without allowing the wells to dry. […]
The eluted mRNA isolated was then used in a one-step quantitative real-time PCR reaction, using components of the Ultra Sense Kit together with Applied Biosystems primer-probe mixes. Real-time PCR data was analyzed, normalizing the Ct values for hMCP-1 to an internal control, prior to determining the fold induction of each unknown sample, relative to the control.

[3] = In vivo efficacy in rat collagen induced arthritis; conditions: female Lewis rats, collagen Day 1 and 7, dosed Day 11 to Day 17
Protocol: Rat collagen-induced arthritis is an experimental model of polyarthritis that has been widely used for preclinical testing of numerous anti-arthritic agents. Following administration of collagen, this model establishes a measurable polyarticular inflammation, marked cartilage destruction in association with pannus formation and mild to moderate bone resorption and periosteal bone proliferation. In this model, collagen was administered to female Lewis strain of rats on Day 1 and 7 of study and dosed with compounds from Day 11 to Day 17. Test compounds were evaluated to assess the potential to inhibit the inflammation (including paw swelling), cartilage destruction and bone resorption in arthritic rats, using a model in which the treatment is administered after the disease has been established.

[4] = In vivo efficacy in experimental autoimmune encephalomyelitis (EAE) model of MS; parameters: species or system mouse; conditions: female C57Bl/6 mice, MOG35-55/CFA and pertussis toxin, 28 day preventative model
Text: Experimental autoimmune encephalomyelitis (EAE) is a T-cell-mediated autoimmune disease of the CNS which shares many clinical and histopathological features with human multiple sclerosis (MS). EAE is the most commonly used animal model of MS. […] Cytokines IL-23, IL-6 and IL-17, which are either critical for Th1 and Th17 differentiation or produced by these T cells, play a critical and non-redundant role in EAE development. Therefore, drugs targeting production of these cytokines are likely to have therapeutic potential in treatment of MS.
This study was conducted to assess the potential anti-inflammatory effect of test compounds to inhibit the inflammation and clinical EAE scores of a 28 day preventative mouse model. In this model, EAE was induced by MOG35-55/CFA immunization and pertussis toxin injection in female C57Bl/6 mice.

- FRET activity (IC50 < 30 μM) [1]: Active
- MCP-1 activity (IC50 < 30 μM) [2]: Active
SMILES: COc1cc(OC)c2c(=O)[nH]c(-c3cccc(N4CCN(C(C)C)CC4)n3)nc2c1 [Example 17, 2-(6-(4-Isopropylpiperazin-1-yl)pyridin-2-yl)-5,7-dimethoxyquinazolin-4(3H)-one Hydrochloride]
- In vivo activity [3]: Active
- In vivo activity [4]: Active
